Source: ChEMBL document CHEMBL1138903, “Secondary amides of sulfonylated 3-amidinophenylalanine. New potent and selective inhibitors of matriptase” (J Med Chem, 2006)

Tests used:
[1] = molecular target: Prothrombin (Homo sapiens, UniProt P00734); assay: Inhibition of thrombin
[2] = molecular target: Plasminogen (Homo sapiens, UniProt P00747); assay: Inhibition of plasmin
[3] = molecular target: Coagulation factor X (Homo sapiens, UniProt P00742); assay: Inhibition of f10a
[4] = molecular target: Urokinase-type plasminogen activator (Homo sapiens, UniProt P00749); assay: Inhibition of uPA
[5] = molecular target: T1, Suppressor of tumorigenicity 14 protein (Homo sapiens, UniProt Q9Y5Y6)
T1 sequence (Q9Y5Y6 whole entry): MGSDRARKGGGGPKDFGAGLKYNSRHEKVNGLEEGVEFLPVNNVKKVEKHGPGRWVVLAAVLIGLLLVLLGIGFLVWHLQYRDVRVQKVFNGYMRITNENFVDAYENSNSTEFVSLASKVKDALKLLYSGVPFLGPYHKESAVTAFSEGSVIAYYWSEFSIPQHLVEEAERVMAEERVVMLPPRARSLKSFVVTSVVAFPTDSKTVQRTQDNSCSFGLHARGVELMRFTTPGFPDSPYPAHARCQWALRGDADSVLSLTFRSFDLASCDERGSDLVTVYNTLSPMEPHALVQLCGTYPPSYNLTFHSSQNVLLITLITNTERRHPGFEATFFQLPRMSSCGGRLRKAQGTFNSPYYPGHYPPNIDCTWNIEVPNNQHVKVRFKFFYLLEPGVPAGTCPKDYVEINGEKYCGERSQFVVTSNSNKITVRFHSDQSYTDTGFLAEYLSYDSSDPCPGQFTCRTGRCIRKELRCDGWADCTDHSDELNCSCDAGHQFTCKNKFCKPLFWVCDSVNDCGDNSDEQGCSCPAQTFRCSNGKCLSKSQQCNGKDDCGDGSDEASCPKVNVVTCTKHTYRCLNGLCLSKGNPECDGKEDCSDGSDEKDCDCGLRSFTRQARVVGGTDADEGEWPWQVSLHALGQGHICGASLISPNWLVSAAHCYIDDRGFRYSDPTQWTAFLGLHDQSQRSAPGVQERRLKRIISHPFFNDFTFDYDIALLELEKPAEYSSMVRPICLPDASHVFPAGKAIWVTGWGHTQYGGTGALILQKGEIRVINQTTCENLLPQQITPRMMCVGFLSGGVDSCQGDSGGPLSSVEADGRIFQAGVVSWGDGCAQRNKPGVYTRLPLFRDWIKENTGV

Chain of Plasminogen (P00747 97-580 limits assumed): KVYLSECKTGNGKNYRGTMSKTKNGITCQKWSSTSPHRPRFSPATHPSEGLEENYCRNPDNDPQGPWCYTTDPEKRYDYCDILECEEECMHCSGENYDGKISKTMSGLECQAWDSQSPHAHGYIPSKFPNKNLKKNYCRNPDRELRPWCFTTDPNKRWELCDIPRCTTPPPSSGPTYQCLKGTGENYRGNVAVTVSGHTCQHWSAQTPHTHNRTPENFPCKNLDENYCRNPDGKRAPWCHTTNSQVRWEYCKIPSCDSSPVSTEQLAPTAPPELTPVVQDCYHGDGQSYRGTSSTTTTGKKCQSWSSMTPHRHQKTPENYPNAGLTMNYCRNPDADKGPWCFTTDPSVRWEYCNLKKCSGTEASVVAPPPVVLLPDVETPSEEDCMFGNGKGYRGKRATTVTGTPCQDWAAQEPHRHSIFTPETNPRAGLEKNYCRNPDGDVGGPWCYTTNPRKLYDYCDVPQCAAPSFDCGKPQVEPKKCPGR
Chain of Plasminogen (P00747 581-810 limits assumed): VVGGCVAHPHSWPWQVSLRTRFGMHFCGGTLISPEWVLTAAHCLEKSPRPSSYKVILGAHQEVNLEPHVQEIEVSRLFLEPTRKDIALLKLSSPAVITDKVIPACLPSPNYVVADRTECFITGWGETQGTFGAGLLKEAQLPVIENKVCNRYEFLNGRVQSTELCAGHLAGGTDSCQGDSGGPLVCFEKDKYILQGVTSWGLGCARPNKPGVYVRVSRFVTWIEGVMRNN
Chain of Coagulation factor X (P00742 41-179 limits assumed): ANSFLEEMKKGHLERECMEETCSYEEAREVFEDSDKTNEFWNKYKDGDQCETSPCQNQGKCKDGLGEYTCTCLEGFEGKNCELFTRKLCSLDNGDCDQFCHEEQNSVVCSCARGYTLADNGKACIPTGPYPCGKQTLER
Chain of Coagulation factor X (P00742 235-488 limits assumed): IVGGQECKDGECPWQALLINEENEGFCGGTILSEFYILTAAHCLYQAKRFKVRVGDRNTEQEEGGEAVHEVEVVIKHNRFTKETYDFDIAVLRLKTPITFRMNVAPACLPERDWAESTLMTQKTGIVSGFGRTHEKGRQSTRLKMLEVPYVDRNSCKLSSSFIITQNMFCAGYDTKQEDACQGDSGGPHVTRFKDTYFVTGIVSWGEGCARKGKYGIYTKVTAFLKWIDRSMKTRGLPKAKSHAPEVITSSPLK

CC(C)c1cc(C(C)C)c(S(=O)(=O)N[C@@H](Cc2cccc(C(=N)N)c2)C(=O)N2CCN(C(=O)CCN)CC2)c(C(C)C)c1
Ki [1]: 3.3 µM | Ki [2]: 0.44 µM | Ki [3]: 15 µM

N=C(N)c1cccc(C[C@H](NS(=O)(=O)c2cccc3ccccc23)C(=O)N2CCC(CCN=C(N)N)CC2)c1
Ki [1]: 0.19 µM | Ki [2]: 1.7 µM | Ki [4]: 2.3 µM | Ki [3]: 13 µM | Ki [5]: 0.072 µM

CC(C)c1cc(C(C)C)c(S(=O)(=O)N[C@@H](Cc2cccc(C(=N)N)c2)C(=O)N2CCCN(C(=O)CCN=C(N)N)CC2)c(C(C)C)c1
Ki [1]: 0.62 µM | Ki [2]: 0.44 µM | Ki [4]: 0.81 µM | Ki [3]: 1.2 µM | Ki [5]: 0.065 µM

N=C(N)NCCC(=O)N1CCN(C(=O)[C@H](Cc2cccc(C(=N)N)c2)NS(=O)(=O)c2ccc3cc4ccccc4cc3c2)CC1
Ki [1]: 0.46 µM | Ki [2]: 3.2 µM | Ki [4]: 6.1 µM | Ki [3]: 4.6 µM

CC(C)c1cc(C(C)C)c(S(=O)(=O)N[C@@H](Cc2cccc(C(=N)N)c2)C(=O)N2CCCN(C(=O)C3CCNCC3)CC2)c(C(C)C)c1
Ki [1]: 5 µM | Ki [2]: 0.26 µM | Ki [4]: 2.5 µM | Ki [3]: 5.8 µM

CC(C)c1cc(C(C)C)c(S(=O)(=O)N[C@@H](Cc2cccc(C(=N)N)c2)C(=O)N2CCN(C(=O)CCCN=C(N)N)CC2)c(C(C)C)c1
Ki [1]: 4.2 µM | Ki [2]: 0.88 µM | Ki [4]: 0.26 µM | Ki [3]: 2.8 µM | Ki [5]: 0.061 µM

N=C(N)c1cccc(C[C@H](NS(=O)(=O)c2ccc3c(c2)C(=O)c2ccccc2C3=O)C(=O)N2CCC(C(=O)NCCN)CC2)c1
Ki [1]: 0.42 µM | Ki [2]: 3.1 µM | Ki [4]: 7.7 µM | Ki [3]: 4 µM | Ki [5]: 0.021 µM

CC(C)c1cc(C(C)C)c(S(=O)(=O)N[C@@H](Cc2cccc(C(=N)N)c2)C(=O)N2CCCN(C(=O)CCN)CC2)c(C(C)C)c1
Ki [1]: 0.49 µM | Ki [2]: 0.36 µM | Ki [4]: 1.2 µM | Ki [3]: 5.3 µM

N=C(N)NCCC1CCN(C(=O)[C@H](Cc2cccc(C(=N)N)c2)NS(=O)(=O)c2ccc(C3CCCCC3)cc2)CC1
Ki [1]: 0.051 µM | Ki [2]: 2 µM | Ki [4]: 1.9 µM | Ki [3]: 1.8 µM | Ki [5]: 0.088 µM

Cc1ccc(S(=O)(=O)NC(Cc2cccc(C(=N)N)c2)C(=O)N2CCCCC2)cc1 (configuration not stated)
Ki [5]: 14 µM

CCC(C)(C)c1ccc(S(=O)(=O)N[C@@H](Cc2cccc(C(=N)N)c2)C(=O)N2CCN(C(=O)CCN=C(N)N)CC2)cc1
Ki [1]: 0.26 µM | Ki [2]: 2.5 µM | Ki [4]: 18 µM | Ki [3]: 8.3 µM | Ki [5]: 0.2 µM

N=C(N)NCCC(=O)N1CCN(C(=O)[C@H](Cc2cccc(C(=N)N)c2)NS(=O)(=O)c2ccc(-c3ccccc3)cc2)CC1
Ki [1]: 0.58 µM | Ki [2]: 3.1 µM | Ki [4]: 4 µM | Ki [3]: 10 µM | Ki [5]: 0.25 µM

N=C(N)c1cccc(C[C@H](NS(=O)(=O)c2ccc(Cc3ccncc3)cc2)C(=O)N2CCC(CCN=C(N)N)CC2)c1
Ki [1]: 0.27 µM | Ki [2]: 0.84 µM | Ki [4]: 3.6 µM | Ki [3]: 2.3 µM | Ki [5]: 0.053 µM

CC(C)c1cc(C(C)C)c(S(=O)(=O)N[C@@H](Cc2cccc(C(=N)N)c2)C(=O)N2CCNCC2)c(C(C)C)c1
Ki [1]: 1.3 µM | Ki [2]: 0.8 µM | Ki [4]: 0.87 µM | Ki [3]: 4.6 µM | Ki [5]: 0.1 µM

N=C(N)c1cccc(C[C@H](NS(=O)(=O)c2ccc(C3CCCCC3)cc2)C(=O)N2CCNCC2)c1
Ki [1]: 0.17 µM | Ki [2]: 2.8 µM | Ki [4]: 6.6 µM | Ki [3]: 1.1 µM

N=C(N)c1cccc(C[C@H](NS(=O)(=O)c2cccc(NC(=O)CCCN)c2)C(=O)N2CCC(CCN)CC2)c1
Ki [1]: 21 µM | Ki [2]: 2.5 µM | Ki [4]: 8 µM | Ki [3]: 23 µM

N=C(N)NCCC(=O)Nc1ccc(S(=O)(=O)N[C@@H](Cc2cccc(C(=N)N)c2)C(=O)N2CCC(CCNC(=N)N)CC2)cc1
Ki [1]: 1.8 µM | Ki [2]: 1.2 µM | Ki [4]: 0.6 µM | Ki [3]: 10 µM | Ki [5]: 0.0087 µM

CCC(=O)N1CCN(C(=O)[C@H](Cc2cccc(C(=N)N)c2)NS(=O)(=O)c2ccc3c(c2)C(=O)c2ccccc2C3=O)CC1
Ki [1]: 0.054 µM | Ki [2]: 6 µM | Ki [4]: 31 µM | Ki [3]: 1.3 µM

N=C(N)c1cccc(C[C@H](NS(=O)(=O)c2ccc3ccccc3c2)C(=O)N2CCC(C3CCN(C(=N)N)CC3)CC2)c1
Ki [1]: 1.8 µM | Ki [2]: 1.4 µM | Ki [4]: 1.3 µM | Ki [3]: 25 µM

N=C(N)c1cccc(C[C@H](NS(=O)(=O)c2ccc3ccccc3c2)C(=O)N2CCC(CCN)CC2)c1
Ki [1]: 0.21 µM | Ki [2]: 1.4 µM | Ki [4]: 2.3 µM | Ki [3]: 76 µM

N=C(N)c1cccc(C[C@H](NS(=O)(=O)c2cccc(NC(=O)CN)c2)C(=O)N2CCC(CCN)CC2)c1
Ki [1]: 7 µM | Ki [2]: 4.5 µM | Ki [4]: 11 µM | Ki [3]: 35 µM

N=C(N)c1cccc(C[C@H](NS(=O)(=O)c2cccc(NC(=O)CCN)c2)C(=O)N2CCC(CCN=C(N)N)CC2)c1
Ki [1]: 6 µM | Ki [2]: 5 µM | Ki [4]: 1.7 µM | Ki [3]: 9.5 µM | Ki [5]: 0.0018 µM

CCOC(=O)N1CCN(C(=O)[C@H](Cc2cccc(C(=N)N)c2)NS(=O)(=O)c2c(C(C)C)cc(C(C)C)cc2C(C)C)CC1
Ki [3]: 1.7 µM

CC(C)c1cc(C(C)C)c(S(=O)(=O)N[C@@H](Cc2cccc(C(=N)N)c2)C(=O)N2CCN(C(=O)CCN=C(N)N)CC2)c(C(C)C)c1
Ki [1]: 1.6 µM | Ki [2]: 1.4 µM | Ki [4]: 0.82 µM | Ki [3]: 2.9 µM | Ki [5]: 0.057 µM

CC(C)c1cc(C(C)C)c(S(=O)(=O)N[C@@H](Cc2cccc(C(=N)N)c2)C(=O)N2CCC(CCN=C(N)N)CC2)c(C(C)C)c1
Ki [1]: 0.3 µM | Ki [2]: 1 µM | Ki [4]: 0.32 µM | Ki [3]: 3.2 µM | Ki [5]: 0.089 µM

N=C(N)NCCNC(=O)C1CCN(C(=O)[C@H](Cc2cccc(C(=N)N)c2)NS(=O)(=O)c2ccc3c(c2)C(=O)c2ccccc2C3=O)CC1
Ki [1]: 0.42 µM | Ki [2]: 4.1 µM | Ki [4]: 3.6 µM | Ki [3]: 4.9 µM | Ki [5]: 0.013 µM

Cc1c(C)c(S(=O)(=O)N[C@@H](Cc2cccc(C(=N)N)c2)C(=O)N2CCN(C(=O)CCN=C(N)N)CC2)c(C)c2c1OC(C)(C)C2
Ki [1]: 3 µM | Ki [2]: 10.2 µM | Ki [4]: 25 µM | Ki [3]: > 1000 µM | Ki [5]: 0.73 µM

N=C(N)NCCC(=O)N1CCN(C(=O)[C@H](Cc2cccc(C(=N)N)c2)NS(=O)(=O)c2ccc3c(c2)C(=O)c2ccccc2C3=O)CC1
Ki [1]: 1.8 µM | Ki [2]: 7.2 µM | Ki [4]: 26 µM | Ki [3]: 2.8 µM | Ki [5]: 0.053 µM

N=C(N)NCCC(=O)N1CCN(C(=O)[C@H](Cc2cccc(C(=N)N)c2)NS(=O)(=O)Cc2ccc3ccccc3c2)CC1
Ki [1]: 2.6 µM | Ki [2]: 12 µM | Ki [4]: 43 µM | Ki [3]: 130 µM | Ki [5]: 0.4 µM

CC(C)c1cc(C(C)C)c(S(=O)(=O)N[C@@H](Cc2cccc(C(=N)N)c2)C(=O)N2CCN(C(=O)C3CCNCC3)CC2)c(C(C)C)c1
Ki [1]: 5.4 µM | Ki [2]: 1.3 µM | Ki [4]: 1.2 µM | Ki [3]: 17 µM

CC(C)c1cc(C(C)C)c(S(=O)(=O)NC(Cc2cccc(C(=N)N)c2)C(=O)N2CCN(C(=O)CCN=C(N)N)CC2)c(C(C)C)c1 (configuration not stated)
Ki [5]: 0.082 µM

N=C(N)c1cccc(C[C@H](NS(=O)(=O)c2ccc(-c3ccccc3)cc2)C(=O)N2CCN(C(=O)C3CCN(C(=N)N)CC3)CC2)c1
Ki [1]: 1.3 µM | Ki [2]: 1.4 µM | Ki [4]: 12 µM | Ki [3]: 2.8 µM

N=C(N)NCCC(=O)N1CCN(C(=O)[C@H](Cc2cccc(C(=N)N)c2)NS(=O)(=O)c2ccc3ccccc3c2)CC1
Ki [1]: 1.4 µM | Ki [2]: 2.8 µM | Ki [4]: 6.9 µM | Ki [3]: 56 µM | Ki [5]: 0.21 µM

N=C(N)c1cccc(C[C@H](NS(=O)(=O)c2cccc(NC(=O)CCN)c2)C(=O)N2CCC(CCCN)CC2)c1
Ki [1]: 13 µM | Ki [2]: 2.7 µM | Ki [4]: 1.5 µM | Ki [3]: 15 µM | Ki [5]: 0.005 µM

CC(C)c1cc(C(C)C)c(S(=O)(=O)NC(Cc2cccc(C(=N)N)c2)C(=O)N2CCN(C(=O)CN)CC2)c(C(C)C)c1 (racemic)
Ki [1]: 0.2 µM | Ki [2]: 3.4 µM | Ki [4]: 8.9 µM | Ki [3]: 10.5 µM | Ki [5]: 0.69 µM

CC(C)c1cc(C(C)C)c(S(=O)(=O)N[C@@H](Cc2cccc(C(=N)N)c2)C(=O)N2CCN(C(=O)C3CCN(C(=N)N)CC3)CC2)c(C(C)C)c1
Ki [1]: 5 µM | Ki [2]: 0.6 µM | Ki [4]: 1.1 µM | Ki [3]: 10 µM

CC(C)c1cc(C(C)C)c(S(=O)(=O)N[C@@H](Cc2cccc(C(=N)N)c2)C(=O)N2CCN(C(=N)N)CC2)c(C(C)C)c1
Ki [1]: 13 µM | Ki [2]: 1.8 µM | Ki [4]: 1.6 µM | Ki [3]: 3.7 µM

N=C(N)c1cccc(C[C@H](NS(=O)(=O)c2ccc3ccccc3c2)C(=O)N2CCC(C3CCNCC3)CC2)c1
Ki [1]: 12 µM | Ki [2]: 0.21 µM | Ki [4]: 2.2 µM | Ki [3]: 24 µM
